Test results as given in patent publication US6046231A, “Use of 4'-bromoflavone in a cancer chemopreventative composition and method” (The Board of Trustees of the University of Illinois, priority 1999, dated 2000).
“Also recorded” adds a separate entry of the source. Read-outs that look alike come from different tables or passages of the source.

Tests used:
[1] = tested on: H4IIE rat hepatoma cells; assay: Toxicity in H4IIE rat hepatoma cells; type: cell-based
[2] = tested on: GST Ya (α class); assay: Western blot of GST Ya (α-type) expression in H4IIE cells; type: cell-based, rat
Procedure: (§1) Western Blot Analysis Glutathione S-transferase Expression. Cultured H4IIE rat hepatoma cells were treated with test agent with various concentrations or various time points. […] Cells were harvested using SDS lysis buffer (20 mM Tris-Cl, pH 6.8, containing 0.4% SDS (w/v), 4% glycerol, 0.24 M β-mercaptoethanol, and 0.5% bromphenol) and the lysates were boiled for 5 minutes, then stored at -20° C. An aliquot of lysate was used for protein determination using a bicichoninic acid protein assay kit with BSA as a standard. Equivalent amounts of protein were electrophoresed by SDS-PAGE on precast 12.5% Tris-glycine acrylamide gels (Novex, San Diego, Calif.), then transferred to polyvinylidene difluoride (PDVF) membranes. Nonspecific binding sites were blocked with 10% nonfat dry milk and blotting was performed with goat polyclonal antirat GSTYa (α class) IgG or antirat, GSTYb (μ class) IgG and analyzed by alkaline phosphatase-conjugated antigoat IgG secondary antibody (Oxford Biomed Research, Inc.) and quantified using an AP 20 Alkaline Phosphatase Kit detection system (Oxford Biomed Research, Inc.).
(§2) Induction of Expression of Glutathione S-transferase Ya (α-type) and Yb (μ-type) in Cell Cultures. […] To date, the superfamily of mammalian cytosolic GST isozymes has been defined genetically to consist of four classes; α, μ, π, and θ, which differ in tissue-specificexpression and distribution, as well as substrate specificity. […] Cultured H4IIE cells were treated either with 10 μM of 4'-BF (FIG. 7B) or sulforaphane for 0, 2, 4, 8, 16, 24, and 48 hours for a time-dependent study, or with 0.16, 0.8, 4, 10, 20, and 50 μM of 4'-BF (FIG. 7A) or sulforaphane for 24 hr for a dose-dependent study (FIG. 7A). The expressions of two major detoxification isoforms of GSTs (GST Ya: α-type, and GST Yb: μ-type) mediated by 4'-BF or sulforaphane were investigated in H4EII rat hepatoma cells using Western blotting technique.

[3] = tested on: quinone reductase (QR), Hepa 1c1c7 cells; assay: Quinone reductase (QR) induction in Hepa 1c1c7 cells; type: cell-based, murine
Text: This test was used because the specific activity of QR rises concomitantly with other phase II enzymes in many animal tissues in response to various chemopreventive agents. The study included natural and synthetic B-ring substituted flavones, as well as biosynthetic precursor chalcones and flavanones.
Determination of Quinone Reductase Activity in Cell Cultures. To determine the potency of inducers, Hepa 1c1c7 murine hepatoma cells as described in the Gerhauser publication were placed in 96-well plates at a density of 1×10^4 cells/ml in 200 μl of medium. After a preincubation period of 24 hr, the media were decanted and 190 μl fresh media were added to each well. Ten (10) μl test agents dissolved in 10% DMSO (final concentration of DMSO is 0.5%) with a serial 2-fold dilutions were introduced to each well, and the plates were incubated for an additional 48 hours. Specific QR activity was determined by measuring the NADPH-dependent menadiol-mediated reduction of 3-(4, 5-dimethylthiazo-2-yl)-2,5-diphenyltetrazolium bromide to blue formazan formed per mg protein per minute. Protein was determined in an identical set of test plates by staining with crystal violet. Hepa 1c1c7 cells retain many characteristics of normal issues, particularly the capacity for carcinogen activation and metabolism. They are amenable to precise control of environmental, nutritional, and hormonal factors. […] Induction of QR activity was calculated by comparing the QR specific activity of agent-treated cells with that of solvent-treated cells, and a plot of ratio was generated. CD represents the concentration required to double QR induction. Chemopreventive index (CI) is an indexing value generated by comparing CD with IC50 (concentration for 50% inhibition of cell viability) values.
Induction of Quinone Reductase in Hepa 1c1c7 Cells. […] Modification of the B-ring of chalcones, flavanones, and flavones was hypothesized to induce torsion of the B-ring, and, therefor, simulate out-of-plane distortions characteristic of polycyclic aromatic hydrocarbons, such as DMBA. Induction of QR activity was calculated by comparing the QR specific activity of agent-treated cells with the QR specific activity of solvent-treated cells, and a plot of ratios was generated. CD represents the concentration required for a double fold of induction. CI (Chemopreventive Index) is a value obtained by comparing CD with IC50 (concentration for 50% inhibition of cell viability in […]).

[4] = tested on: pDTD-1097CAT construct (QR gene 5'-region), HepG2 cells; assay: CAT expression in HepG2 cells transfected with pDTD-1097CAT; type: cell-based, human cells; rat QR gene; settings: 10 μM, 48 h; p<0.0001
Procedure: Transcient Transfection Gene Expression Assay. Cultured HepG2 human hepatoma cells were transfected with three plasmid constructs (PDTD-1697CAT, XRE-CAT, ARE-CAT) containing various portions of the 5'-region of the QR gene fused to the CAT gene using the calcium phosphate precipitation method (J. Sambrook et al., Molecular cloning: A Laboratory Handbook, Ed. Chris Nolan, CHS Laboratory Press, 1989). After 4 hours of transfection, the cells were treated with 10% glycerol for 3 minutes and rinsed with PBS and switched to MEM, containing 100 units/ml penicillin G sodium, 100 units/ml streptomycin sulfate, nonessential amino acids, and 1 mM sodium pyruvate (Life Technologies Inc.) supplemented with 10% fetal bovine serum for 12-16 hours recovery. Then, test agents were added to the cells. After 48 hours of treatment with the test agents, cells were harvested with lysis buffer (Boehringer Mannheim Biochemical) and CAT protein expressions were assessed using a CAT ELISA kit (Boehringer Mannheim Biochemical). […] All data were expressed as mean +/- SD. […]
(§3) In particular, FIG. 1 illustrates quantitation of CAT expression in HepG2 cells transfected with QR-CAT constructs. […] CAT expression (ng CAT/mg protein) was determined using a CAT ELISA, and the ratio of CAT expression between treated and control cells was calculated (ratio=treated/control).

[5] = tested on: quinone reductase (QR), Hepa 1c1c7 cells; settings: reported comparator value; cited from earlier work
[6] = tested on: Hepa 1c1c7 cells; assay: Hepa 1c1c7 cell viability (cytotoxicity); type: cell-based, murine; settings: Mus musculus, Hepa-1c1c7, read-out: IC50, concentration for 50% inhibition of cell viability
[7] = tested on: QR XRE-CAT construct, HepG2 cells; assay: CAT expression in HepG2 cells transfected with QR XRE-CAT; type: cell-based, human cells; rat QR gene; settings: 10 μM, 48 h
Procedure: (§4) Transcient Transfection Gene Expression Assay. Cultured HepG2 human hepatoma cells were transfected with three plasmid constructs (PDTD-1697CAT, XRE-CAT, ARE-CAT) containing various portions of the 5'-region of the QR gene fused to the CAT gene using the calcium phosphate precipitation method (J. Sambrook et al., Molecular cloning: A Laboratory Handbook, Ed. Chris Nolan, CHS Laboratory Press, 1989). After 4 hours of transfection, the cells were treated with 10% glycerol for 3 minutes and rinsed with PBS and switched to MEM, containing 100 units/ml penicillin G sodium, 100 units/ml streptomycin sulfate, nonessential amino acids, and 1 mM sodium pyruvate (Life Technologies Inc.) supplemented with 10% fetal bovine serum for 12-16 hours recovery. Then, test agents were added to the cells. After 48 hours of treatment with the test agents, cells were harvested with lysis buffer (Boehringer Mannheim Biochemical) and CAT protein expressions were assessed using a CAT ELISA kit (Boehringer Mannheim Biochemical). CAT enzyme expression was normalized for the protein content of each sample. All data were expressed as mean +/- SD. Means were compared using Student's t test with n=4.
(§5) This was further investigated in transient transfection experiments wherein human hepatoma cells were transfected with DNA constructs containing various portions of the 5' upstream promoter region of the QR gene linked to the CAT reporter gene by using the calcium phosphate precipitation method. Construct pDTD-1097CAT contains elements of the rat QR gene connected to the CAT construct gene. […]
as §3

[8] = tested on: GST Yb (μ class); assay: Western blot of GST Yb (μ-type) expression in H4IIE cells; type: cell-based, rat
Procedure: as §1, §2

[9] = tested on: QR ARE-CAT construct, HepG2 cells; assay: CAT expression in HepG2 cells transfected with QR ARE-CAT; type: cell-based, human cells; rat QR gene; settings: 10 μM, 48 h; p<0.0001
Procedure: as §4, §5, §3

[10] = tested on: Hepa 1c1c7 cells; settings: comparator value; read-out: IC50 (toxicity), comparison value; cited from earlier work

Compound | toxicity in H4IIE cells [1] | maximum induction time, GST Ya ([2]; 10 μM, 0-48 h) [h] | maximum induction concentration, GST Ya ([2]; 0.16-50 μM, 24 h) [µM] | GST Ya (α) induction ([2]; H4IIE cells) | CI, chemoprevention index (IC50/CD) ([3]; IC50/CD, 2880 min) | EC (2-fold) ([3]; Mus musculus, Hepa-1c1c7, 48 h, Hepa 1c1c7 cells, 48 h, read-out: CD, concentration to double the specific activity of QR) [µM] | CAT expression, pDTD-1097CAT [4] | CD, comparison value [5] [µM] | IC50 [6] [µM] | CAT expression, QR XRE-CAT [7] | maximum induction time, GST Yb ([8]; 10 μM, 0-48 h) [h] | maximum induction concentration, GST Yb ([8]; 0.16-50 μM, 24 h) [µM] | GST Yb (μ) induction ([8]; H4IIE cells) | CAT expression, QR ARE-CAT [9] | IC50 [10] [µM]
C[S+]([O-])CCCCN=C=S (stereo not drawn) [Sulforaphane, sulforaphane, reference compound] | a declined induction for sulforaphane was observed at a concentration higher than 10 μM due to the toxic effects | 16 to 24 | 4 to 10 | Time, dose-dependent induction | 26 | 0.43 | significantly (p<0.0001) induced | 0.23 | 11 | not observed | 16 to 24 | 4 to 10 | Time, dose-dependent induction | significantly (p<0.0001) induced; also recorded: selectively interacted with the ARE | –
O=c1cc(-c2ccccc2)oc2ccc3ccccc3c12 [β-naphthoflavone] | – | – | – | – | – | – | – | 0.02 to 0.04 | – | significantly (P<0.0001, students t test with n=4) induced | – | – | – | significantly (P<0.0001, students t test with n=4) induced | 8
